According to paper PMC12363518, “Azobenzene-Modified Temperature-Responsive Short Elastin-like Peptides for Photo-Controlled Phase Transition” (ACS Synthetic Biology, 2025):
Numbered stars: 1 amine (or outer) side, 2 acyl side, 3 side chain; on linkers, the order of the positions; unused ones are H or OH. Bridge positions count the residues as written; N and C are the ends. Peptide text beside a SMILES is read from it. I, II: the chains in the order shown. X1 = O=C(c1ccc(N=Nc2ccc(C(=O)[*:2])cc2)cc1)[*:1]

How the values were obtained:
[1] = Optical / fluorescence microscopy of coacervates and Rhodamine B-loaded aggregates; assay type: physicochemical
Procedure: To investigate the morphological properties of the ELP–azobenzene conjugates, a PBS solution of Azb-2(K-F2) was observed by using optical microscopy at different temperatures under light-protected conditions. The Azb-2(K-F2) solution was almost homogeneous at 25 °C (Figure A). However, spherical coacervates of the peptide emerged at 35 °C and then rapidly matured into larger particles with diameters of several micrometers by increasing the temperature to 37 °C (Figure B,C). These particles stably exist under dark conditions (Figure D).
Azb-2(K-F2) was further studied to determine whether the chemical release from the peptide aggregates could be controlled by light irradiation. Azb-2(K-F2) and Rhodamine B (a red fluorescent dye) were heated in PBS to form coacervates, and a stable pellet of the aggregate was obtained by centrifugation. This pellet was composed of Azb-2(K-F2) coacervates containing rhodamine B with diameters of several micrometers, as shown in Figure . The structure of the obtained sample was observed over time by using optical and fluorescence microscopy under irradiation with monochromatic light at a wavelength of 365 nm (Figure ). Before light irradiation, the peptide aggregate containing Rhodamine B was observed as a red-colored amorphous structure with a size of approximately 600–700 μm. When irradiated with UV-A light, spherical particles (several micrometers in diameter) leaked from the surface of the aggregates and the red dye diffused accordingly. This dissociation process was considered to be the reverse of the stepwise phase separation in which ELP formed submicron-ordered aggregates and then matured to larger aggregates with diameters of several micrometers. […] In contrast, the peptide aggregate containing Rhodamine B was stable at 37 °C in the absence of UV-A light (Figure S12).
The morphology of the coacervates of the ELP–azobenzene conjugate Azb-2(K-F2) was observed by optical microscopy. The light field observation was performed using a Leica DM IL LED (Leica Microsystems CMS, Wetzlar, Germany) equipped with HI PLAN 40× (Leica Microsystems CMS), HC PLAN 10× (Leica Microsystems CMS), and a Leica EL6000 external light source (Leica Microsystems CMS). Azb-2(K-F2) was dissolved in PBS buffer at a concentration of 3 mg/mL. Sample imaging was performed at 25, 35, and 37 °C by using a Thermo Plate TP-CHSQM (Tokai Hit Co., Ltd., Shizuoka, Japan). […]
A time-course observation of Azb-2(K-F2) aggregates in the presence of a fluorescent dye was also performed. To the Azb-2(K-F2) solution (in phosphate buffer, pH 7.4, 3 mg/mL) was added Rhodamine B at a final concentration of 50 μM. The resulting solution was incubated at 37 °C for 4 h. Then, the solution was centrifuged for 20 s (6200 rpm) to obtain an aggregate of the peptide as a red pellet. The obtained peptide aggregate was washed with PBS buffer (37 °C, 50 μL, three times) and was used to make a prepared slide. Time-dependent observation of the prepared sample was carried out at 37 °C under irradiation with 365 nm monochromatic light.

SMILES: CC(C)[C@H](NC(=O)CNC(=O)[C@@H]1CCCN1C(=O)[C@H](Cc1ccccc1)NC(=O)CNC(=O)[C@@H](NC(=O)CNC(=O)[C@@H]1CCCN1C(=O)[C@H](Cc1ccccc1)NC(=O)[C@H](CCCCN)NC(=O)c1ccc(N=Nc2ccc(C(=O)N[C@@H](CCCCN)C(=O)N[C@@H](Cc3ccccc3)C(=O)N3CCC[C@H]3C(=O)NCC(=O)N[C@H](C(=O)NCC(=O)N[C@@H](Cc3ccccc3)C(=O)N3CCC[C@H]3C(=O)NCC(=O)N[C@H](C(=O)NCC(=O)O)C(C)C)C(C)C)cc2)cc1)C(C)C)C(=O)NCC(=O)O [Azb-2(K-F2)] (I: KFPGVGFPGVG-OH / II: KFPGVGFPGVG-OH; linker I:N-II:N via X1)
- peak wavelength π–π*: 330 nm
- aggregate containing Rhodamine B without UV-A light ([1]; 37 °C, absence of UV-A light (Figure S12)): stable
- aggregate containing Rhodamine B under continued UV-A irradiation ([1]; optical and fluorescence microscopy, 37 °C, 365 nm monochromatic light, Rhodamine B 50 μM at loading): completely collapsed
- coacervate particles after UV-A irradiation ([1]; optical microscopy, 3 mg/mL in PBS, 37 °C, UV-A 365 nm for 5 min): particles disappeared
- coacervate particles after subsequent room light ([1]; optical microscopy, 3 mg/mL in PBS, 37 °C, room light 5 min after UV-A): spherical aggregates reappeared
- temperature at which spherical coacervates emerged ([1]; optical microscopy, 3 mg/mL in PBS, light-protected): 35 °C
